From paper PMC12627627 (Nature Communications, 2025)
Several values for one entry are separate records, joined by “and”; a condition that tells them apart may be missing. Equal entries are not always repeated.

What was measured:
WT RyR1 = molecular target: T1, WT RyR1 (Oryctolagus cuniculus, UniProt P11716); test: Time-lapse [Ca2+]ER measurement, HEK293 cells expressing WT RyR1; type: cell-based; settings: Fig. 5H source data, 4 mM caffeine, single replicates
T1 construct: expressed in transfected cells

WT RyR2 = test: Time-lapse [Ca2+]ER measurement, HEK293 cells expressing WT RyR2; type: cell-based; settings: for ER luminal [Ca2+] change (F/F0): Fig. 5D source data, single replicates
Experimental: HEK293 cells stably expressing R-CEPIA1er and RyRs (WT RyR1, RyR1-W881A, RyR1-W995A, RyR1-R2163C, and WT RyR2)[26],[27] were used in this study. Briefly, the cells were seeded at a density of 2 × 10⁴ cells/well in a 96-well black, clear-bottom plate (Corning). Doxycycline (2 µg/mL) was added 12 h after seeding, and the medium was replaced 24 h later with HEPES-buffered Krebs solution (5 mM HEPES, pH 7.4; 140 mM NaCl; 5 mM KCl; 2 mM CaCl₂; 1 mM MgCl₂; and 11 mM glucose). Fluorescence measurements were conducted using a FlexStation 3 fluorometer (Molecular Devices) at 37 °C. The R-CEPIA1er was excited at 560 nm, emitted at 610 nm, and captured every 10 seconds over 300 seconds. Different concentrations of compound, dissolved in buffer containing 1% DMSO, were added 100 s after recording began. The fluorescence changes (F/F₀) were calculated by dividing the average fluorescence of the last 100 seconds (F) by that of the first 100 seconds (F₀). All measurements were performed in triplicate.

[1] = parameters: method as in PMID 1729917, PMID 2790379; settings: water-soluble analog compared with DAN; cited from earlier work

T1 sequence (P11716 whole entry): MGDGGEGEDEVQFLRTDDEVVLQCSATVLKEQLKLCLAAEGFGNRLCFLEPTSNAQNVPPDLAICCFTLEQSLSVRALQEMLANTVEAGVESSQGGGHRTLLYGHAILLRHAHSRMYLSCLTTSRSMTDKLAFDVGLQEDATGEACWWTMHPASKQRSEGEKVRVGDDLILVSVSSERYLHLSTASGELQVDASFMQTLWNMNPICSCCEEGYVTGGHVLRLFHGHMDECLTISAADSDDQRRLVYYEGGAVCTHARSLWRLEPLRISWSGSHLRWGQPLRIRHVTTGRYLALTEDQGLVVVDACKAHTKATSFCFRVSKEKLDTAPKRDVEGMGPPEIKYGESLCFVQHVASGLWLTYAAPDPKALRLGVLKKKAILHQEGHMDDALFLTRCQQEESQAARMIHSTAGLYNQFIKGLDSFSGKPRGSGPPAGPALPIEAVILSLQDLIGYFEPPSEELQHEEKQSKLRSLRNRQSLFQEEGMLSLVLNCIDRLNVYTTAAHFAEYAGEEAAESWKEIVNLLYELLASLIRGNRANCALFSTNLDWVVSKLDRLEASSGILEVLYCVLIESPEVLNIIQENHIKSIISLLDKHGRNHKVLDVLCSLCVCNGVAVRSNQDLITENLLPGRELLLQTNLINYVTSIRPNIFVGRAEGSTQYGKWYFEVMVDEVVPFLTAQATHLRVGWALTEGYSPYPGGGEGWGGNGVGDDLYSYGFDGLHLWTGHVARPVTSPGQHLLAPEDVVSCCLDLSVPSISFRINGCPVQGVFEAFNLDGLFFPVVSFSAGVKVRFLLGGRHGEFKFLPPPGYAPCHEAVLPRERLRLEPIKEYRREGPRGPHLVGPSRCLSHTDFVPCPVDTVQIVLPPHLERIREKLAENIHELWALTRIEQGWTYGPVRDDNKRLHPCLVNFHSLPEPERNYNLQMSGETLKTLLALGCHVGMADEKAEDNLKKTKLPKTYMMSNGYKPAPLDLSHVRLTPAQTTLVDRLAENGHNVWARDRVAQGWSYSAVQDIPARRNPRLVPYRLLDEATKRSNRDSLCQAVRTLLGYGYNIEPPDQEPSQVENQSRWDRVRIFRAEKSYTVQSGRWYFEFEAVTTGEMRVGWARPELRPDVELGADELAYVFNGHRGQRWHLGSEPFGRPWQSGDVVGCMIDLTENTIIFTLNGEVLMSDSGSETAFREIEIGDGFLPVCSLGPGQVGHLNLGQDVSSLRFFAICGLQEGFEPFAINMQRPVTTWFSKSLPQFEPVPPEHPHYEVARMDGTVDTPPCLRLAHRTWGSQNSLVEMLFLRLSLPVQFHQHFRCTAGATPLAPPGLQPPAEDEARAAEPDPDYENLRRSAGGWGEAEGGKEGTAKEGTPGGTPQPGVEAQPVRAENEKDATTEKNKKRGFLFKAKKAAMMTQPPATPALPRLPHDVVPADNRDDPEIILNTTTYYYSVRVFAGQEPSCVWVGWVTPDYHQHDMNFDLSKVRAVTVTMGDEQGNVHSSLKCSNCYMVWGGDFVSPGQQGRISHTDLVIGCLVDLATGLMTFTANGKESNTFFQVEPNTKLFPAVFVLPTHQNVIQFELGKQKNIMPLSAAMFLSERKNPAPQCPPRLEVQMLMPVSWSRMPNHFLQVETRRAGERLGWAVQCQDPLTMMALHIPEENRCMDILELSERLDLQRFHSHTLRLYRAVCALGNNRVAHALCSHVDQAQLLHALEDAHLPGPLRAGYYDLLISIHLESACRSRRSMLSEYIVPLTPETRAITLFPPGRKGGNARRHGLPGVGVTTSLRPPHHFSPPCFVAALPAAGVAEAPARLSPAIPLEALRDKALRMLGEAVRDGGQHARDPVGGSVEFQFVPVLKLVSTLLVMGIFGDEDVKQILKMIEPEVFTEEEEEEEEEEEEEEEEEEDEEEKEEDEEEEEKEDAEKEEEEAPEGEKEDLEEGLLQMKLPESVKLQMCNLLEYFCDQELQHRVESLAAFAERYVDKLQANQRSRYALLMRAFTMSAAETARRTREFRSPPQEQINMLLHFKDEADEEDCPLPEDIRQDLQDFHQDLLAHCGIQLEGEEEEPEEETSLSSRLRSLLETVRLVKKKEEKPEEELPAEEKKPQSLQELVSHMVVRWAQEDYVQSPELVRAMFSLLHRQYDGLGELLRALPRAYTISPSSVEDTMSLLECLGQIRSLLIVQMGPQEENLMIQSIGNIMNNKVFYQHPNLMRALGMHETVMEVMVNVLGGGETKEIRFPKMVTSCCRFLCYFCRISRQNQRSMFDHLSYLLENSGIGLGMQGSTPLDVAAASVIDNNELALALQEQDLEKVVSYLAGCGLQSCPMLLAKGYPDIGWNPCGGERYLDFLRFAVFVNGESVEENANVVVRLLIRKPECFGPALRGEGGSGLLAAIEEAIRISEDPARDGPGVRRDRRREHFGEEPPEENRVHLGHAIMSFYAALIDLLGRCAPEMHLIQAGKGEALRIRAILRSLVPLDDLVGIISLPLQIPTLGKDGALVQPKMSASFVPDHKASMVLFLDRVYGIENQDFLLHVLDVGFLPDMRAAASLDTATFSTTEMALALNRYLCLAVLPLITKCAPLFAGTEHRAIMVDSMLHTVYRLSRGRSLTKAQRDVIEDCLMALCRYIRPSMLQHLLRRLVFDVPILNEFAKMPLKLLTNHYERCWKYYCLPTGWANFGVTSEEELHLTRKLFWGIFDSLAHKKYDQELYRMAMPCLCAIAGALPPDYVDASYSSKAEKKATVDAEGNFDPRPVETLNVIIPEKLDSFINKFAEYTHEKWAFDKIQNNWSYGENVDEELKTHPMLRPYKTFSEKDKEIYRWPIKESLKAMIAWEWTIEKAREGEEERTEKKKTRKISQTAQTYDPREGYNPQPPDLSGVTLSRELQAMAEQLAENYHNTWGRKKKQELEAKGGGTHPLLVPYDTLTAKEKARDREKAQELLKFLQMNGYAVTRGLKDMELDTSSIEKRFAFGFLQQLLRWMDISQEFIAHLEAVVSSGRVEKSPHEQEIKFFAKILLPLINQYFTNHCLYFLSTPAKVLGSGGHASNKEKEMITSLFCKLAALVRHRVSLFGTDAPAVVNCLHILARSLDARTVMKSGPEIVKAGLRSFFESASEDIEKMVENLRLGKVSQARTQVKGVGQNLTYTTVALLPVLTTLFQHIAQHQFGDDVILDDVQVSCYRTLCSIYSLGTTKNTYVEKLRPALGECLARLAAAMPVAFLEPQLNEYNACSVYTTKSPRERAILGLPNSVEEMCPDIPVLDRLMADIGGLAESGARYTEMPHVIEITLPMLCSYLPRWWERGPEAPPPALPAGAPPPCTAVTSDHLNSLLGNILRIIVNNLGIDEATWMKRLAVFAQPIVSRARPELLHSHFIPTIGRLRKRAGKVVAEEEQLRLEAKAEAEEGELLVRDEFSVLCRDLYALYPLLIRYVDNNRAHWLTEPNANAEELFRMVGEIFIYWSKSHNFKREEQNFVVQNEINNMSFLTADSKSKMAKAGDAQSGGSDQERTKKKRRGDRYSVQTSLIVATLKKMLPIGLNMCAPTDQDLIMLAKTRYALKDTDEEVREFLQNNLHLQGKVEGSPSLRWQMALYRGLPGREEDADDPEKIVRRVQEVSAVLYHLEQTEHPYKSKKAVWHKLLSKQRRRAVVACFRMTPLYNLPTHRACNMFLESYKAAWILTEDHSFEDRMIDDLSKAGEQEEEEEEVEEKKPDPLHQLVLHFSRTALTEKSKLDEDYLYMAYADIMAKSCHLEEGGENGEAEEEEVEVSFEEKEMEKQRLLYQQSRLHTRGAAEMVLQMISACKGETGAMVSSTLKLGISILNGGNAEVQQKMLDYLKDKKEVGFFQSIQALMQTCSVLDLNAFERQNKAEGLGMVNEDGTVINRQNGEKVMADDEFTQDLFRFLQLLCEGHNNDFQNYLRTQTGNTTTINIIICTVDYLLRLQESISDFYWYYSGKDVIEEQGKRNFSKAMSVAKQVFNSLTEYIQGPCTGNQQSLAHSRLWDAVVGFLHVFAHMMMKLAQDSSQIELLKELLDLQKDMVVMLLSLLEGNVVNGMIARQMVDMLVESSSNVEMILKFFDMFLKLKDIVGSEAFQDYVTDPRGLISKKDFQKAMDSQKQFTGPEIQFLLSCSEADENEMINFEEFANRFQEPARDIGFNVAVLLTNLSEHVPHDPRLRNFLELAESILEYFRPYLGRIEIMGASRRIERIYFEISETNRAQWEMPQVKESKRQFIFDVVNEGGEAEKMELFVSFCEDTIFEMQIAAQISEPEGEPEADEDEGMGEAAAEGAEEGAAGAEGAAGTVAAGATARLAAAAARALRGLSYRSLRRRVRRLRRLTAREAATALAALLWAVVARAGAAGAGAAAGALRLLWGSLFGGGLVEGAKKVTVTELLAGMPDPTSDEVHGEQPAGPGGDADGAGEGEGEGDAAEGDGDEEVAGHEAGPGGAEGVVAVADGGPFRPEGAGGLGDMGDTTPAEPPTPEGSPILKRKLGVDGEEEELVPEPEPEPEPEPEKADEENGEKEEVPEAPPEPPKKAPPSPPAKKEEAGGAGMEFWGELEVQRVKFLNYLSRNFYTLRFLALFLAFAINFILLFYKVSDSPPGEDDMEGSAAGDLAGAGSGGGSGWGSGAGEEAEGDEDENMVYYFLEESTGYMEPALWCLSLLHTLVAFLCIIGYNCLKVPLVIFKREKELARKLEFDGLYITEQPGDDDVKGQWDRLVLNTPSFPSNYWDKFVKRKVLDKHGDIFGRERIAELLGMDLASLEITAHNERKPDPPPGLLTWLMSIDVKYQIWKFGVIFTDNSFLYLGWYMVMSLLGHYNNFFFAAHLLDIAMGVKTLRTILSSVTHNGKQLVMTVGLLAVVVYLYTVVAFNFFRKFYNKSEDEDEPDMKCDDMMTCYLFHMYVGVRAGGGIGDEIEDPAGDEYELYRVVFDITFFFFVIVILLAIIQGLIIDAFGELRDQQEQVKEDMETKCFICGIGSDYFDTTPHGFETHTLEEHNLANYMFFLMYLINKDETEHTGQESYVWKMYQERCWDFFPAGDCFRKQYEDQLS

Structure (SMILES)	ER luminal [Ca2+] change (F/F0) (WT RyR1; RI-2 0.1 uM)	ER luminal [Ca2+] change (F/F0) (WT RyR1; RI-2 0.3 uM)	ER luminal [Ca2+] change (F/F0) (WT RyR1; RI-2 1 uM)	ER luminal [Ca2+] change (F/F0) (WT RyR1; RI-2 3 uM)	ER luminal [Ca2+] change (F/F0) (WT RyR1; RI-2 10 uM)	ER luminal [Ca2+] change (F/F0) (WT RyR1; RI-2 30 uM)	ER luminal [Ca2+] change (F/F0) (WT RyR1; RI-2 100 uM)	ER luminal [Ca2+] change (F/F0) (WT RyR2; RI-2 0.1 uM)	ER luminal [Ca2+] change (F/F0) (WT RyR2; RI-2 0.3 uM)	ER luminal [Ca2+] change (F/F0) (WT RyR2; RI-2 1 uM)	ER luminal [Ca2+] change (F/F0) (WT RyR2; RI-2 3 uM)	ER luminal [Ca2+] change (F/F0) (WT RyR2; RI-2 10 uM)	ER luminal [Ca2+] change (F/F0) (WT RyR2; RI-2 30 uM)	ER luminal [Ca2+] change (F/F0) (WT RyR2; RI-2 100 uM)	effect on ER luminal [Ca2+] (WT RyR2; dose-dependent [Ca2+]ER measurements)	solubility relative to DAN [1]
O=C(C[C@@H](NCCCO)C(=O)O)Nc1ccc2ccccc2c1 [RI-2]	0.9624 and 0.9803 and 0.9793	0.9865 and 0.9725 and 0.9809	1.001 and 1.0002 and 0.9956	1.043 and 1.036 and 1.039	1.092 and 1.122 and 1.066	1.229 and 1.248 and 1.218	1.681 and 1.622 and 1.659	1.012 and 0.991 and 0.9966	1.053 and 1.031 and 0.9893	1.071 and 0.9532 and 1.019	0.989 and 1.026 and 1.009	1.0308 and 1.04 and 0.9817	1.051 and 0.9858 and 1.027	1.1169 and 1.011 and 1.1	no significant effect	
O=C1CN(/N=C/c2ncc(-c3ccc(Br)cc3)o2)C(=O)N1 [AZU, Azumolene]																approximately 30 fold
